Each structure is given as a SMILES string. Where two headings read alike, the source gives them in different places.

Drawing on patent US7129351B2, “Pyrimido compounds having antiproliferative activity” (Hoffmann-La Roche Inc., priority 2002, dated 2006), this text covers IC50 and melting point for seven compounds.

In series [1] the target is T1, Src (p60^c-src) (Homo sapiens, UniProt P12931).
T1 construct: purchased Upstate (UBI)
In words: SRC-Inhibitor-Assay (homogenous time-resolved fluorescence kinase assay). It counts as biochemical. The procedure: The activity of the compounds according to this invention as inhibitors for the src-family tyrosine kinases was shown by using the following assay.
SRC-Inhibitor-Assay Parameters:
whereby both peptides were synthesized by an optimized solid phase peptide synthesis protocol (Merrifield (1962) Fed. Proc. Fed. Amer. Soc Exp. Biol. 21, 412) on an Zinsser SMP350 peptide synthesizer. Shortly, the peptide was assembled on 160 mg (22.8 μmol scale) of a Rink-Linker modified polystyrene solid phase by repeatedly conjugating a twenty fold excess of aminoacids each protected by temporary piperidine labile Fmoc- and permanent acid labile tert-Bu-, BOC- and O-tert-Bu-groups depending on the side chain function. The substrate sequence AEEEIYGEFEAKKKK was N-terminal additionally mounted with the spacer amino acids Aminocaprylic acid and Glycin. After cleavage of the N-terminal temporary protecting group the still attached and protected peptide was labeled with a 1.5 fold amount of LightCycler-Red 640-N-hydroxy succinimide ester (purchased from Roche Diagnostics GmbH) and triethylamine. After 3 hrs. the resin was washed with dimethylformamide and isopropanol until the eluates of the blue resin got colourless. […] The substrate was finally isolated by a preparative reverse phase HPLC purification. The purification yielded 12.2 mg RP-HPLC single peak pure blue material (lyophilisate). The identity was proven by MALDI mass spectroscopy [2720.0]. • Enzymes: Upstate Lck (p56^lck, active), Upstate Src (p60^c-src, partially purified) were purchased from UBI. • Homogenous, time-resolved Fluorescence Assay: Reader: Perkin Elmer, Wallac Viktor 1420-040 multilabel counter; Liquid handling system: Beckman Coulter, Biomek 2000. • ATP, Tween 20, HEPES were purchased from Roche Molecular Biochemicals, MgCl2 and MnCl2 were purchased from Merck Eurolab, TCEP was purchased from Pierce, 384 Well low volume fluorescence plates was purchased from Falcon. Assay Description:
At first the enzyme is pre-incubated for 15 min. at 15° C. in aqueous solution with corresponding amounts of inhibitors according to this invention. Then the phosphorylation reaction is started by adding a reaction mixture, containing ATP, Peptide and PT66, and subsequent shaking. The proceeding of this reaction is immediately monitored using time resolved fluorescence spectroscopy in a suitable well plate reader.
The IC50-values can be obtained from the reaction rates by using a non-linear curve fit (Excelfit).

[2] abbreviates: ATP 5 μM, enzyme 2.5 U/mL, pre-incubated 15 min at 15° C., read-out: IC50 (μM) - Enzyme Inhibition Assay, Src.

T1 sequence (P12931 whole entry): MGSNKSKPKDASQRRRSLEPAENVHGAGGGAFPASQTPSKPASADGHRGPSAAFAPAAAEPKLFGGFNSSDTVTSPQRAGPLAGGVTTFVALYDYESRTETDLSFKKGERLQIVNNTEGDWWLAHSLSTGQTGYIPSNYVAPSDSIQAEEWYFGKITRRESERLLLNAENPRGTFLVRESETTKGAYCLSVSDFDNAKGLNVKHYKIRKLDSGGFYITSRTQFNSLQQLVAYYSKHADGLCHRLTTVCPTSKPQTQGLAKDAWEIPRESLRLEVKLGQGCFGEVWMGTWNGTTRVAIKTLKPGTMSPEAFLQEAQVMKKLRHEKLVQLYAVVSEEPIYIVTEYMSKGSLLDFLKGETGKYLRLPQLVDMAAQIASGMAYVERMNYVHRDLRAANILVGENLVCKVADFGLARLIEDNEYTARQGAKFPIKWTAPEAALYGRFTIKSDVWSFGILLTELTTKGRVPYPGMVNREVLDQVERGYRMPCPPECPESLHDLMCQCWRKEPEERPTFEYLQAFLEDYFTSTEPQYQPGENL

Regarding `CCN(CC)CCc1cccc(Nc2ncc3c(n2)N(c2cccc(C#N)c2)C(=O)N(c2ccc(OC)cc2)C3C)c1` (racemic) [Example 5b, (±)-3-[7-[3-(2-diethylamino-ethyl)-phenylamino]-3-(4-methoxy-phenyl)-4-methyl-2-oxo-3,4-dihydro-2H-pyrimido[4,5-d]pyrimidin-1-yl]-benzonitrile], the melting point was in the range of 128 to 145 °C. For the same compound, the IC50 in series [1] (setting [2]) was less than 1 µM.
In the same order, the values of `COc1ccc(N2C(=O)N(c3cccc(C(N)=O)c3)c3nc(Nc4cccc(CCN(C)C)c4)ncc3C2C)cc1` (racemic) [Example 9, (±)-3-[7-[3-(2-dimethylamino-ethyl)-phenylamino]-3-(4-methoxy-phenyl)-4-methyl-2-oxo-3,4-dihydro-2H-pyrimido[4,5-d]pyrimidin-1-yl]-benzamide] are 215 to 230 °C and less than 1 µM.
`COc1ccc(N2C(=O)N(c3cccc(C(N)=O)c3)c3nc(Nc4cccc(CCN5CCN(C)CC5)c4)ncc3C2C)cc1` (racemic) [Example 10, (±)-3-(3-(4-methoxy-phenyl)-4-methyl-7-{3-[2-(4-methyl-piperazin-1-yl)-ethyl]-phenylamino}-2-oxo-3,4-dihydro-2H-pyrimido[4,5-d]pyrimidin-1-yl)-benzamide] had a melting point of 243 to 251 °C. Further, in series [1] (setting [2]), the half-maximal inhibitory concentration (IC50) was less than 1 µM.
As to `COc1ccc(N2C(=O)N(c3cccc(C#N)c3)c3nc(Nc4cccc(CCN(C)C)c4)ncc3C2C)cc1` (racemic) [Example 6, (±)-3-[7-[3-(2-dimethylamino-ethyl)-phenylamino]-3-(4-methoxy-phenyl)-4-methyl-2-oxo-3,4-dihydro-2H-pyrimido[4,5-d]pyrimidin-1-yl]-benzonitrile], the melting point was in the range of 120 to 135 °C. In series [1] (setting [2]), the IC50 is less than 1 µM.
The compound `COc1ccc(N2C(=O)N(c3cccc(C#N)c3)c3nc(Nc4cccc(CCN5CCN(C)CC5)c4)ncc3C2C)cc1` (racemic) [Example 7, (±)-3-(3-(4-methoxy-phenyl)-4-methyl-7-{3-[2-(4-methyl-piperazin-1-yl)-ethyl]-phenylamino}-2-oxo-3,4-dihydro-2H-pyrimido[4,5-d]pyrimidin-1-yl)-benzonitrile] came in with a melting point of 134 to 155 °C. The IC50 in series [1] (setting [2]) was less than 1 µM.
`COc1ccc(N2C(=O)N(c3cccc(C#N)c3)c3nc(Nc4cccc(CCO)c4)ncc3C2C)cc1` (racemic) [Example 4, (±)-3-[7-[3-(2-hydroxy-ethyl)-phenylamino]-3-(4-methoxy-phenyl)-4-methyl-2-oxo-3,4-dihydro-2H-pyrimido[4,5-d]pyrimidin-1-yl]-benzonitrile] came in with a melting point of 195 to 200 °C. For the same compound, the IC50 in series [1] (setting [2]) was less than 1 µM.
Consider `CCN(CC)CCc1cccc(Nc2ncc3c(n2)N(c2cccc(C(N)=O)c2)C(=O)N(c2ccc(OC)cc2)C3C)c1` (racemic) [Example 8, (±)-3-[7-[3-(2-diethylamino-ethyl)-phenylamino]-3-(4-methoxy-phenyl)-4-methyl-2-oxo-3,4-dihydro-2H-pyrimido[4,5-d]pyrimidin-1-yl]-benzamide], for which the melting point fell in the range of 170 to 175 °C. Besides, the half-maximal inhibitory concentration (IC50) in series [1] (setting [2]) is less than 1 µM. The 50% inhibitory concentration (IC50) in series [1] (printed at the end of the Example 8 characterisation data, kinase not named at that place, read-out: IC50) was 0.0045 µM.

By IC50 is commonly meant the concentration that gives 50% inhibition. By melting point is commonly meant the temperature, or range, at which the solid turns liquid.
